Test results as given in article PMC8213385, “Development of a Fluorescent Assay to Search New Drugs Using Stable tdTomato-Leishmania, and the Selection of Galangin as a Candidate With Anti-Leishmanial Activity” (Frontiers in Cellular and Infection Microbiology, 2021).
Where two headings read alike, the source gives them in different places.

Tests used:
[1] = test system: intracellular amastigotes of L. (L.) amazonensis; test: Microscopic assay, counting intracellular amastigotes in Raw 264.7 macrophages at the optic microscope; type: cell-based, Leishmania (Leishmania) amazonensis; details: for SI (Selectivity index): CC50 for macrophages/IC50 for Leishmania (intracellular amastigotes; Ma from fluorescence IC50); for IC50: Leishmania amazonensis, RAW264.7, Raw 264.7 macrophages, 48 h, optic microscope, read-out: Microscopic IC50 μM (SE), intracellular amastigotes
Procedure: (§1) Furthermore, the efficacy of MI was also determined against intracellular amastigotes of L. amaz/tc3 and L. amaz/wt. Raw 264.7 macrophages were plated in 96-well black plate (5 x 10^4 cells/well) and in eight well Lab-Tek tissue culture slides (6.6 x 10^4 cells/ml) (Nunc, USA). The cells were infected with promastigotes in stationary phase of L. amaz/tc3 and L. amaz/wt (1:20 ratio) at 33°C, 5% CO2. After incubation, the infected macrophages were washed to remove non-internalized parasites with PBS plus P-S. New RPMI-1640 medium with different concentrations of MI (20 to 0.62 µg/ml) was added to each well and incubated at 33°C, 5% CO2 during 48 h. The anti-leishmanial activity of MI was determined by measuring the fluorescence of intracellular amastigotes of L. amaz/tc3 in a plate reader (Tecan, Männedorf, Switzerland). The viability was calculated as mentioned above, and the IC50 was also estimated. Simultaneously, the leishmanicidal activity of MI against L. amaz/wt was determined by the microscopy test. In this case, the infected macrophages were stained with Diff Quik (Biopur S.R.L., Rosario, Argentina) and the number of intracellular amastigotes was determined in 200-500 macrophages in treated and control cultures per slide under the immersion lens microscope (100x) (Leitz Wetzlar, Germany). The infection index (II) and the % infectivity (I) were calculated by the following formulas: II = IM × A, where IM= infected macrophages (%), A= number of amastigotes per infected macrophages; and I(%)=IIT/IIc×100, where IIT= infection index in treated cultures, IIC= infection index in control cultures ([Ayres et al., 2008]). The IC50 of MI was calculated.
Then, to estimate the IC50 values of GAL, FI and MO; and to confirm the IC50 of RU, the activity was evaluated quantifying the intracellular amastigotes at the optic microscope. We followed the same methodology described for MI (microscopic assay) in “In Vitro, Fluorescent Assay Validation” section and the range of concentrations were for GAL (30 to 7.5 µM), FI (60 to 15 µM), RU and MO (200 to 50 µM), EGCG (142 a 17.7 µM).

[2] = test system: promastigotes of L. amaz/tc3; test: Transmission electron microscopy of treated promastigotes; type: cell-based, Leishmania (Leishmania) amazonensis; details: exposed to the IC50, 48 h
Procedure: Ultrastructural alterations in Leishmania induced by flavonoids with anti-leishmanial activity were analyzed by transmission electron microscopy (TEM). […] The control was a culture of L. amaz/tc3 incubated in complete RPMI-1640 medium. After 48 h of incubation, samples of L. amaz/tc3 promastigotes from each culture were fixed in modified Karnovsky’s solution (formaldehyde [2.66%], glutaraldehyde [1.66%]) and PBS 0.1M (pH 7,4), and incubated overnight at 4°C. The fixed samples were post-fixed with a 1/1 solution of PBS/2% osmium tetroxide (OsO4), overnight. Then the material was dehydrated and included in Spurr (Pelco, USA). Ultrathin sections were cut with an ultramicrotome (MT1, Sorvall, USA), mounted on copper grids, and contrasted with uranyl acetate (PELCO, USA) and lead citrate.

[3] = Cytotoxicity in macrophage cell line by the MTT method (colorimetric); type: cell-based; details: mouse
Procedure: The cytotoxicity against a cell line of macrophages (Raw 264.7) of GAL, MO, FI, RU, EGCG, PE, MI and MA was determined by the MTT method. Cells (3.3 x 10^5/ml) cells were treated with different concentrations of each compound during 48 h at 37°C, 5% CO2. The controls were incubated with RPMI-1640 medium. Briefly, 50 µl of MTT (2 mg/mL) was added to each well and, after 4 h of incubation at 37°C, 5% CO2, the reaction was stopped dissolving the formazan crystals with 100 µl/well of dimethyl sulfoxide. The relative amount of formazan produced by viable macrophages was determined using a spectrophotometer at 595 nm. The percentage of viable cells was calculated according to the formula (OD treated culture−OD blank)/(OD control−OD blank) ×100 as was described previously ([Adinehbeigi et al., 2017]). The cytotoxicity concentration 50% (CC50) was calculated for each compound.

[4] = test system: promastigotes of L. amaz/tc3; test: Fluorescence assay against promastigotes of L. amaz/tc3 (tdTomato); type: cell-based, Leishmania (Leishmania) amazonensis; details: 48 h; for IC50: Leishmania; for Inhibition of parasite growth (promastigotes): doses ≤ 40 µM, fluorescence assay
Procedure: Then, we evaluated the efficacy of MI, a reference drug for leishmaniasis by the fluorescence method (L. amaz/tc3) and by the conventional method based in counting the parasite at the optic microscope (L. amaz/wt). Mid-log promastigotes of L. amaz/tc3 and L. amaz/wt were harvest and seeded (1 x 10^6/0.1 ml) with different concentrations of MI (40 to 0.6 µg/ml) in a 96-well plate at 23°C. Promastigotes cultured only in medium were the controls. Parasite viability was determined by measuring the fluorescence of L. amaz/tc3 in a plate reader (Tecan, Männedorf, Switzerland) and by counting the mobile promastigotes in a Neubauer chamber at the optic microscope (40x) (Leitz Wetzlar, Germany) at 48 h of incubation with MI. Viability was calculated with the formula: ViabilityL.amaz/tc3 =FLt/FLc×100 where, FLt is the fluorescence of treated culture, and FLc is the fluorescence of control; ViabilityL.amaz/wt=NPt/NPc×100 where, NPt is the number of promastigotes in the treated culture, and NPc is the number of promastigotes in control culture. Then, the 50% inhibitory concentration (IC50) of MI was estimated.
After fluorescence assay validation as it is described above, the method was used to evaluate in vitro the flavonoids anti-leishmanial activity. Mid-log promastigotes of L. amaz/tc3 were harvest and seeded with different concentrations of GAL (1,200 to 18.75 µM), MO, FI and RU (40 to 1.25 µM), and EGCG (300 to 18.75 µM). Positive control were promastigotes treated with PE (4 to 0.25 µM), the negative control were promastigotes cultured with medium only, and the blank was the culture medium. The parasites were incubated at 23°C for 48 h. The anti-leishmanial activity was determined by measuring the parasite fluorescence in a plate reader (Tecan, Männedorf, Switzerland). The viability was estimated as was described above for MI (fluorescent assay). The IC50 was calculated for each compound.

[5] = test system: intracellular amastigotes of L. amaz/tc3; test: Fluorescence assay in the macrophage-amastigote model (Raw 264.7 infected with L. amaz/tc3); type: cell-based, Leishmania (Leishmania) amazonensis
Procedure: as §1
The flavonoids anti-leishmanial activity was also evaluated against intracellular amastigotes. Macrophages (Raw 264.7) were plated in 96-well black plate (5 x 10^4 cell/well) and infected with promastigotes in stationary phase of L. amaz/tc3 (1:20 ratio) at 33°C, 5% CO2. After incubation, the infected macrophages were washed to remove non-internalized parasites with PBS plus P-S. New RPMI-1640 medium with different concentrations of GAL (30 to 3.75 µM), MO (300 to 37.5 µM), FI (65 to 8.12 µM), RU (300 to 37.5 µM) and EGCG (30 to 7.5 µM) was added to each well and incubated at 33°C, 5% CO2 for 48 h. Infected cells treated with Ma (136.6 to 34.1 µM) were the positive controls, and cells incubated only with RPMI-1640 were the negative control. The infected macrophages were incubated during 48 h at 33°C, 5% CO2. After treatment, the fluorescence of intracellular amastigotes of L. amaz/tc3 was measured in a plate reader (Tecan, Männedorf, Switzerland). The viability was determined as was described for MI (fluorescent assay). The selectivity index (SI) (CC50 for macrophages/IC50 for Leishmania) was calculated.

[6] = test system: promastigotes of L. (L.) amazonensis; design: method as in Escobar et al., 2002; Morais-Teixeira et al., 2011; details: published data ref Escobar et al., 2002; Morais-Teixeira et al., 2011; cited from earlier work
[7] = test system: amastigotes of L. (L.) amazonensis; design: method as in Escobar et al., 2002; Morais-Teixeira et al., 2011; details: published data ref Escobar et al., 2002; Morais-Teixeira et al., 2011; cited from earlier work
L. amaz/tc3 = test: Efficacy of Ma in BALB/c mice infected with L. amaz/tc3; type: in vivo
Procedure: Female BALB/c mice were infected in their hind right footpad with the stationary phase of promastigotes (5 x 10^6 parasites/0.05 ml) of L. amaz/tc3. Once a week the footpad swelling was measured with the digital caliper. Mice (n = 5) were treated with Ma in PBS (120 mg Sb/kg/day) starting at week 9 post-infection; the antimonial was administered by intraperitoneal injection (ip) once a day for 21 days. Control group (n = 5) received only PBS (ip). Within a week of finishing the Ma treatment, the parasite load was quantified by three methods, fluorescence (FL), optic microscope (OM) and limiting dilution assay (LD) in treated and control group. The FL method was carried out as follows, the hind right footpad was excised and weighed; then the tissue was homogenized using a glass grinder with 5 ml of complete RPMI-1640 medium and the intracellular amastigotes of L. amaz/tc3 were released. A sample (0.1 ml) of the homogenate was centrifuged to replace the medium for PBS, then it was plated in duplicates in a 96-well black culture plate with clear bottom (Nunc, USA) and the fluorescence was measured in a plate reader (Tecan, Männedorf, Switzerland). Besides, a calibration curve was used to extrapolate the sample fluorescence to the number of amastigotes. For that, a pool of amastigotes from control samples was used; amastigotes (1 x 10^6 to 1.5 x 10^4) were plated in duplicates in a 96-well black culture plate with clear bottom, and the fluorescence was measured in a plate reader (Tecan, Männedorf, Switzerland). The number of amastigotes was adjusted to the weight of the sample.
Another sample of the tissue homogenate was used to quantify the parasite loads by direct counting in a Neubauer chamber under an optical microscope (40X) (Leitz Wetzlar, Germany), and the concentration of parasites (amastigotes/ml) of each homogenate was determined ([Hill et al., 1983]). The total number of parasites was adjusted to the weight of each tissue sample.
Finally, a sample of the tissue homogenate was also used to quantify the parasite loads by the LD assay ([Lima et al., 1997]). After serial dilutions in 96-well plates, the samples were incubated at 23°C for 14 days and the number of viable promastigotes was determined from the highest dilution at which the parasite could grow.

[8] = Raw 264.7 macrophage cell line, Raw 264.7, MTT, 48 h, read-out: Colorimetric CC50 μM (SE)
[9] = read-out: IC50 against promastigotes of L. amaz/tc3
[10] = 120 mg Sb/kg/day ip, 21 days, week 13, footpad

O=C(O[C@@H]1Cc2c(O)cc(O)cc2O[C@@H]1c1cc(O)c(O)c(O)c1)c1cc(O)c(O)c(O)c1 [EGCG, (-)-epigallocatechin gallate, reference compound]
SI (Selectivity index) [1]: 1.5 | IC50 [1]: 130 µM | Ultrastructural alterations in promastigotes (TEM) [2]: intense cytoplasmic vacuolization | CC50 at 48 h [3, 8]: 194 µM | IC50 [4, 9]: 120 ± 17.6 µM

O=c1c(O)c(-c2ccc(O)c(O)c2)oc2cc(O)ccc12 [FI, fisetin]
Fluorescence Inhibition (%) of amastigotes ([5]; 15 µM, 48 h): 31% | inhibition at 15 µM ([5]; Leishmania, RAW264.7, 48 h, read-out: Fluorescence Inhibition (%) of amastigotes, 15 µM, 48 h): 29 to 31% | SI (Selectivity index) [1]: < 1 | IC50 [1]: > 60 µM | CC50 at 48 h [3, 8]: 52.6 µM | Inhibition of parasite growth (promastigotes) [4]: no inhibition

CCCCCCCCCCCCCCCCOP(=O)([O-])OCC[N+](C)(C)C [MI, Miltefosine, reference compound]
IC50 ([5]; Leishmania, RAW264.7, 48 h, read-out: IC50 against intracellular amastigotes): 1.65 ± 0.75 µg/mL | Effective dose for promastigotes [6]: 7.54 µg/mL | Effective dose for amastigotes [7]: 1.31 µg/mL | IC50 ([4]; read-out: IC50 against promastigotes): 5.25 ± 0.05 µg/mL

O=c1c(O)c(-c2ccc(O)cc2O)oc2cc(O)cc(O)c12 [MO, morin]
inhibition at 37.5 µM ([5]; Leishmania, RAW264.7, 48 h, read-out: Fluorescence Inhibition (%) of amastigotes, 37.5 µM, 48 h): 13.5% | SI (Selectivity index) [1]: > 1.8 | IC50 [1]: 122 µM | CC50 at 48 h [3, 8]: > 230 µM | Inhibition of parasite growth (promastigotes) [4]: no inhibition

N=C(N)c1ccc(OCCCCCOc2ccc(C(=N)N)cc2)cc1 [PE, Pentamidine isethionate, reference compound]
IC50 [4, 9]: 0.67 ± 0.18 µM

C[C@@H]1O[C@@H](OC[C@H]2O[C@@H](Oc3c(-c4ccc(O)c(O)c4)oc4cc(O)cc(O)c4c3=O)[C@H](O)[C@@H](O)[C@@H]2O)[C@H](O)[C@H](O)[C@H]1O [RU, rutin]
IC50 ([5]; Leishmania, RAW264.7, 48 h, read-out: Fluorescence IC50 μM (SE), intracellular amastigotes): 171 µM | SI (Selectivity index) [1]: > 1.8 | IC50 [1]: 133 µM | CC50 at 48 h [3]: > 240 µM | Inhibition of parasite growth (promastigotes) [4]: no inhibition

Meglumine antimoniate [Ma]
IC50 ([5]; Raw 264.7 macrophages, 48 h, 33°C, read-out: Fluorescence IC50 μM (SE), intracellular amastigotes): 80.3 µM | Inhibition of parasite burden, fluorescence method (FL) (L. amaz/tc3; [10]): 55% | Inhibition of parasite burden, limiting dilution (LD) assay (L. amaz/tc3; [10]): 54% | Inhibition of parasite burden, optic microscope (OM) (L. amaz/tc3; [10]): 75% | Footpad swelling versus control group (L. amaz/tc3; 120 mg Sb/kg/day ip, week 13, p < 0.05): significant difference | Percentage of inhibition in the parasite load, fluorescence and LD assay (L. amaz/tc3; end of treatment, both methods): 54-55%
